Publication PMC5421785, “Citrullination only infrequently impacts peptide binding to HLA class II MHC” (PLoS ONE, 2017)
Read-outs that look alike come from different tables or passages of the source. Each block holds one molecule with its values, some of them ahead of it. Square brackets hold non-standard residues; d marks the D form. Ends that are not written are not given here. Peptide text beside a SMILES is read from it. Cit = NC(=O)NCCC[C@H](N)C(=O)O

Experiments:
HLA-DRB1*04:01 = target: T1, HLA-DRB1*04:01 (Homo sapiens, UniProt P01903+P01911, A100K/A169T/F76Y/I96L/K127E/L162R/M171V/N62H/P40V/Q125Y/R42H/S133A/S149N/S66Y/V115G/V209L/W38E); assay: HLA class II peptide binding, inhibition of radiolabeled peptide binding to purified MHC; settings: for DRB1*04:01 binding capacity, WT/cit ratio: ratio of WT IC50 to Cit IC50
T1 construct: EBV transformed homozygous cell lines were used as sources of MHC molecules; endogenous in cells; host or cells: EBV transformed homozygous cell lines

HLA-DRB1*01:01 = target: T2, HLA-DRB1*01:01 (Homo sapiens, UniProt P01903+P01911, A100R/D57E/F55L/F60I/F76Y/I96L/L162R/M171V/P40L/Q125E/R42F/V115G/Y59C); assay: as above; settings: for DRB1*01:01 binding capacity, WT/cit ratio: ratio of WT IC50 to Cit IC50
T2 construct: EBV transformed homozygous cell lines were used as sources of MHC molecules; endogenous in cells; host or cells: EBV transformed homozygous cell lines

[1] = citrullinated 15-mer peptide (X = citrulline), purified HLA-DRB1*04:01, read-out: DRB1*04:01 binding capacity, Cit peptide (IC50 nM)
[2] = citrullinated 15-mer peptide (X = citrulline), purified HLA-DRB1*01:01, read-out: DRB1*01:01 binding capacity, Cit peptide (IC50 nM)
[3] = wild-type (unmodified Arg) 15-mer peptide, purified HLA-DRB1*04:01, read-out: DRB1*04:01 binding capacity, WT peptide (IC50 nM)
[4] = wild-type (unmodified Arg) 15-mer peptide, purified HLA-DRB1*01:01, read-out: DRB1*01:01 binding capacity, WT peptide (IC50 nM)
[5] = citrullinated 15-mer (X), purified MHC, inhibition of radiolabeled peptide binding, dash = IC50 >40,000 nM, read-out: DRB1*04:01 binding capacity, Cit peptide (IC50 nM)
[6] = citrullinated 15-mer (X), purified MHC, inhibition of radiolabeled peptide binding, dash = IC50 >40,000 nM, read-out: DRB1*01:01 binding capacity, Cit peptide (IC50 nM)
[7] = read-out: DRB1*04:01 binding capacity, WT peptide (IC50 nM)
[8] = read-out: DRB1*01:01 binding capacity, WT peptide (IC50 nM)
[9] = >1 = citrullination increases binding

IC50 (HLA-DRB1*04:01; [1]): > 40000 nM
IC50 (HLA-DRB1*01:01; [2]): 569 nM
Molecule: CC(C)[C@H](NC(=O)CNC(=O)[C@@H](NC(=O)[C@@H]1CCCN1C(=O)CN)[C@@H](C)O)C(=O)N[C@H](C(=O)NCC(=O)N1CCC[C@H]1C(=O)N[C@@H](CCCCN)C(=O)NCC(=O)N[C@@H](C)C(=O)N[C@@H](CCCNC(N)=O)C(=O)NCC(=O)N[C@@H](C)C(=O)N[C@@H](CCC(N)=O)C(=O)O)[C@@H](C)O [GPTGVTGPKGAXGAQ] (H-GPTGVTGPKGA[Cit]GAQ-OH)

IC50 (HLA-DRB1*04:01; [3]): > 40000 nM
IC50 (HLA-DRB1*01:01; [4]): 352 nM
Molecule: GAQGLQGPRGLPGTP [Collagen 711 WT]

IC50 (HLA-DRB1*04:01; [5]): > 40000 nM
IC50 (HLA-DRB1*01:01; [6]): 5570 nM
Molecule: CC(C)C[C@H](NC(=O)[C@H](CCC(=O)O)NC(=O)[C@H](CCC(N)=O)NC(=O)[C@H](CC(C)C)NC(=O)[C@H](CCC(=O)O)NC(=O)[C@@H](NC(=O)[C@H](CCCCN)NC(=O)[C@H](CCC(=O)O)NC(=O)[C@H](CC(N)=O)NC(=O)[C@@H](N)[C@@H](C)O)C(C)C)C(=O)N[C@@H](CC(N)=O)C(=O)N[C@@H](CC(=O)O)C(=O)N[C@@H](CCCNC(N)=O)C(=O)N[C@@H](Cc1ccccc1)C(=O)N[C@@H](C)C(=O)O [TNEKVELQELNDXFA] (H-TNEKVELQELND[Cit]FA-OH)

IC50 (HLA-DRB1*04:01; [7]): 16400 nM
IC50 (HLA-DRB1*01:01; [8]): 12500 nM
Molecule: VEVERDNLAEDIMRL [Vimentin 171 WT]

IC50 (HLA-DRB1*04:01; [5]): > 40000 nM
DRB1*04:01 binding capacity, WT/cit ratio (HLA-DRB1*04:01): 1.0
IC50 (HLA-DRB1*01:01; [6]): > 40000 nM
DRB1*01:01 binding capacity, WT/cit ratio (HLA-DRB1*01:01): 0.7
Molecule: CSCC[C@H](NC(=O)[C@H](CCC(=O)O)NC(=O)[C@H](CCC(=O)O)NC(=O)[C@H](CCC(=O)O)NC(=O)[C@H](Cc1ccc(O)cc1)NC(=O)[C@H](CC(C)C)NC(=O)[C@H](CC(=O)O)NC(=O)CNC(=O)[C@H](CC(C)C)NC(=O)[C@H](CCCNC(=N)N)NC(=O)[C@H](CO)NC(=O)[C@H](CCCCN)NC(=O)CNC(=O)[C@@H](N)CCC(N)=O)C(=O)N[C@@H](CCCNC(N)=O)C(=O)O [QGKSRLGDLYEEEMX] (H-QGKSRLGDLYEEEM[Cit]-OH; N-terminus and C-terminus assumed)

IC50 (HLA-DRB1*04:01; [1]): > 40000 nM
DRB1*04:01 binding capacity, WT/cit ratio (HLA-DRB1*04:01; [9]): 0.548
IC50 (HLA-DRB1*01:01; [2]): > 40000 nM
DRB1*01:01 binding capacity, WT/cit ratio (HLA-DRB1*01:01; [9]): 0.533
Molecule: C[C@H](NC(=O)CNC(=O)[C@H](CCCCN)NC(=O)[C@@H]1CCCN1C(=O)CNC(=O)[C@@H](N)CC(=O)O)C(=O)N[C@@H](CCCNC(N)=O)C(=O)NCC(=O)N[C@@H](CC(=O)O)C(=O)N[C@@H](CO)C(=O)NCC(=O)N1CCC[C@H]1C(=O)N1CCC[C@H]1C(=O)NCC(=O)N[C@@H](CCCNC(=N)N)C(=O)O [DGPKGAXGDSGPPGR] (H-DGPKGA[Cit]GDSGPPGR-OH; N-terminus and C-terminus assumed)

IC50 (HLA-DRB1*04:01; [3]): 1220 nM
IC50 (HLA-DRB1*01:01; [4]): 192 nM
Molecule: CC[C@H](C)[C@H](NC(=O)[C@H](CC(=O)O)NC(=O)[C@H](CC(C)C)NC(=O)[C@H](C)NC(=O)[C@H](CCSC)NC(=O)[C@H](CCCCN)NC(=O)[C@@H](NC(=O)[C@H](CC(N)=O)NC(=O)[C@H](CC(C)C)NC(=O)[C@H](CC(C)C)NC(=O)[C@H](CC(=O)O)NC(=O)[C@H](CCC(N)=O)NC(=O)[C@H](Cc1ccc(O)cc1)NC(=O)[C@H](CCC(=O)O)NC(=O)[C@@H](N)CCCNC(=N)N)C(C)C)C(=O)O [Vimentin 381 WT]

IC50 (HLA-DRB1*04:01; [5]): 1140 nM
IC50 (HLA-DRB1*01:01; [6]): 9330 nM
Molecule: CC(C)C[C@H](NC(=O)[C@H](CCC(=O)O)NC(=O)[C@H](CCC(N)=O)NC(=O)[C@H](CC(C)C)NC(=O)[C@H](CCC(=O)O)NC(=O)[C@@H](NC(=O)[C@H](CCCCN)NC(=O)[C@H](CCC(=O)O)NC(=O)[C@H](CC(N)=O)NC(=O)[C@@H](NC(=O)[C@H](CCCNC(N)=O)NC(=O)[C@@H](NC(=O)[C@H](CC(N)=O)NC(=O)[C@H](CCCCN)NC(=O)[C@@H](N)Cc1ccccc1)[C@@H](C)O)[C@@H](C)O)C(C)C)C(=O)O [FKNTXTNEKVELQEL] (H-FKNT[Cit]TNEKVELQEL-OH)

IC50 (HLA-DRB1*04:01; [1]): 1950 nM
IC50 (HLA-DRB1*01:01; [2]): 448 nM
Molecule: CC(C)C[C@H](NC(=O)[C@H](CO)NC(=O)[C@H](CO)NC(=O)[C@H](Cc1ccccc1)NC(=O)[C@H](CC(N)=O)NC(=O)[C@@H]1CCCN1)C(=O)N[C@@H](CC(N)=O)C(=O)N[C@@H](CC(C)C)C(=O)N[C@@H](CCCNC(N)=O)C(=O)N[C@@H](CCC(=O)O)C(=O)N[C@H](C(=O)N[C@@H](CC(N)=O)C(=O)N[C@@H](CC(C)C)C(=O)N[C@@H](CC(=O)O)C(=O)N[C@@H](CO)C(=O)O)[C@@H](C)O [PNFSSLNLXETNLDS] (H-PNFSSLNL[Cit]ETNLDS-OH)

IC50 (HLA-DRB1*04:01; [3]): > 40000 nM
IC50 (HLA-DRB1*01:01; [4]): 148 nM
Molecule: VLLTLLVAAVLRCQG [Collagen 11 WT]

IC50 (HLA-DRB1*04:01; [7]): 408 nM
IC50 (HLA-DRB1*01:01; [8]): 1840 nM
Molecule: NTLQSFRQDVDNASL [Vimentin 201 WT]

IC50 (HLA-DRB1*04:01; [5]): > 40000 nM
DRB1*04:01 binding capacity, WT/cit ratio (HLA-DRB1*04:01): 1.0
IC50 (HLA-DRB1*01:01; [6]): > 40000 nM
DRB1*01:01 binding capacity, WT/cit ratio (HLA-DRB1*01:01): 1.0
Molecule: CC(C)C[C@H](NC(=O)[C@H](C)NC(=O)[C@H](CC(=O)O)NC(=O)[C@H](CC(N)=O)NC(=O)[C@H](CC(N)=O)NC(=O)[C@H](CCCNC(=N)N)NC(=O)[C@H](CC(N)=O)NC(=O)[C@H](C)NC(=O)[C@H](C)N)C(=O)N[C@@H](CCCNC(N)=O)C(=O)N[C@@H](CCC(N)=O)C(=O)N[C@@H](C)C(=O)N[C@@H](CCCCN)C(=O)N[C@@H](CCC(N)=O)C(=O)N[C@@H](CCC(=O)O)C(=O)O [AANRNNDALXQAKQE] (H-AANRNNDAL[Cit]QAKQE-OH; N-terminus and C-terminus assumed)
